Results taken from PubChem BioAssay (NCI).
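1) Cells in 96-well plates. 2) Compound, 48 h, 5 concentrations. 3) Linear interpolation between surrounding doses. 4) Unreached endpoint = highest concentration. TGI marks complete inhibition of growth.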

Tests used:
Experiment in all cases: DTP human tumour cell line panel, 48 h
[1] = test system: HCT-15 colon
[2] = test system: IGROV1 ovarian
[3] = test system: K-562 leukemia
[4] = test system: KM12 colon
[5] = test system: KM20L2 colon
[6] = test system: NCI-H23 lung
[7] = test system: OVCAR-5 ovarian
[8] = test system: RXF 393 renal
[9] = test system: SK-MEL-5 melanoma
[10] = test system: SK-OV-3 ovarian
[11] = test system: SW-620 colon
[12] = test system: TK-10 renal
[13] = test system: UO-31 renal
[14] = test system: OVCAR-4 ovarian
[15] = test system: NCI/ADR-RES ovarian

| Structure (SMILES) | TGI [1] | TGI [2] | TGI [3] | TGI [4] | TGI [5] | TGI [6] | TGI [7] | TGI [8] | TGI [9] | TGI [10] | TGI [11] | TGI [12] | TGI [13] | TGI [14] | TGI [15] |
| --- | --- | --- | --- | --- | --- | --- | --- | --- | --- | --- | --- | --- | --- | --- | --- |
| COC(=O)C1[C@@H](C(=O)OC)C12C=Cc1ccccc1C=C2 (stereo partly specified) | > 100 µM | > 100 µM | > 100 µM | > 100 µM | > 100 µM | > 100 µM | > 100 µM | > 100 µM | > 100 µM | > 100 µM | > 100 µM | > 100 µM | > 100 µM | – | – |
| O=C(c1ccco1)N(C(=S)N1CCN(c2ccccn2)CC1)C1CCCCC1 | > 100 µM | > 100 µM | > 100 µM | > 100 µM | > 100 µM | > 100 µM | > 100 µM | > 100 µM | > 100 µM | > 100 µM | > 100 µM | > 100 µM | > 100 µM | > 100 µM | – |
| CC1=NN(C(=O)c2ccccc2O)C(=O)/C1=C/c1ccccc1O | 21.2 µM | 3.63 µM | > 100 µM | > 100 µM | > 100 µM | 20.9 µM | > 93.8 µM | 0.924 µM | 14.2 µM | – | > 100 µM | > 100 µM | 1.56 µM | 68.3 µM | > 36.7 µM |
| CCCN1CN(C(C(=O)N[C@@H]2C(=O)N3C(C(=O)O)=C(C)CSC23)c2ccc(O)cc2)CSC1=S (stereo partly specified) | > 100 µM | > 100 µM | > 100 µM | > 100 µM | > 100 µM | > 100 µM | > 100 µM | – | > 100 µM | > 100 µM | 30.8 µM | > 100 µM | > 100 µM | > 100 µM | – |
| O=C(c1cccs1)N(C(=S)N1CCN(c2ccccn2)CC1)C1CCCCC1 | > 100 µM | > 100 µM | > 100 µM | > 100 µM | > 100 µM | > 100 µM | > 100 µM | > 100 µM | > 100 µM | > 100 µM | > 100 µM | > 100 µM | > 100 µM | > 100 µM | – |
| CCCn1c(SCC)c2cc3cc4ccccc4cc3cc2c1-c1nc(F)nc(F)n1 | > 100 µM | > 100 µM | > 100 µM | > 100 µM | > 100 µM | > 100 µM | > 100 µM | > 100 µM | > 100 µM | > 100 µM | > 100 µM | > 100 µM | > 100 µM | > 100 µM | – |
| NC(N)=N/N=C/c1c(-c2ccc([N+](=O)[O-])cc2)nc2n1CCS2 | 36.7 µM | 38.6 µM | 22.6 µM | 21.7 µM | – | 31.3 µM | 28 µM | 23.4 µM | 32 µM | 43.2 µM | 7.33 µM | 31.5 µM | 30.2 µM | 27.7 µM | > 100 µM |
| [O-][n+]1onc(-c2ccccc2)c1CN1CCOCC1 | > 100 µM | > 100 µM | > 100 µM | > 100 µM | – | > 100 µM | > 100 µM | > 100 µM | > 100 µM | > 100 µM | > 100 µM | > 100 µM | > 100 µM | > 100 µM | > 100 µM |
| COc1ccc(/C=C2\CCCCCC2=O)cc1 | > 100 µM | > 100 µM | > 100 µM | > 100 µM | – | > 100 µM | > 100 µM | > 100 µM | > 100 µM | > 100 µM | > 100 µM | > 100 µM | > 100 µM | > 100 µM | > 100 µM |
| O=C1c2ccccc2C2=Nc3ccncc3CN12 | > 100 µM | > 100 µM | > 100 µM | > 100 µM | – | > 100 µM | > 100 µM | > 100 µM | > 100 µM | > 100 µM | > 100 µM | > 100 µM | > 100 µM | > 100 µM | > 100 µM |
| Cc1cccc(C)c1NC(=S)NC=C(C(N)=O)C(N)=O | > 100 µM | > 100 µM | > 100 µM | > 100 µM | – | > 100 µM | > 100 µM | > 100 µM | > 100 µM | > 100 µM | > 100 µM | > 100 µM | > 100 µM | > 100 µM | > 100 µM |
| CN(/N=C/c1ccccn1)C1=NCCCCN1 | > 100 µM | > 100 µM | > 100 µM | > 100 µM | – | > 100 µM | > 100 µM | > 100 µM | > 100 µM | > 100 µM | > 100 µM | > 100 µM | > 100 µM | > 100 µM | > 100 µM |
